Values after ≈ are worked out from the molar mass of the structure shown.
Assays:
[1] = tested on: HepG2; test: Antiproliferative activity against human HepG2 cells at 1 mg/ml after 24 hrs by MTT assay relative to control; format: functional
[2] = tested on: HepG2; test: Antiproliferative activity against human HepG2 cells at 1 mg/ml after 72 hrs by MTT assay relative to control; format: functional
[3] = tested on: HepG2; test: Induction of apoptosis in human HepG2 cells at 1 mg/ml by Annexin V-FITC/propidium iodide staining based flow cytometry (reference value: 0.14%); format: functional
[4] = tested on: SMMC-7721; test: Antiproliferative activity against human SMMC7721 cells at 5 ug/ml after 72 hrs by MTT assay relative to control; format: functional
[5] = tested on: SMMC-7721; test: Antiproliferative activity against human SMMC7721 cells at 200 ug/ml after 72 hrs by MTT assay relative to control; format: functional
[6] = tested on: SGC-7901; test: Growth inhibition of human SGC7901 cells at 60 mg/ml after 72 hrs by MTT assay relative to control; format: functional; settings: SGC-7901, 72 h, read-out: GI
[7] = tested on: SGC-7901; test: Induction of apoptosis in human SGC7901 cells at 30 mg/ml after 48 hrs by propidium iodide staining based flow cytometry (reference value: 3.54 +/- 0.47%); format: functional
[8] = tested on: PANC-1; test: Antiproliferative activity against human PANC1 cells after 72 hrs by MTT assay; format: functional, cell-based; settings: PANC-1, 72 h
[9] = tested on: PANC-1; test: Induction of apoptosis in human PANC1 cells at 0.25 mg/ml by flow cytometry (reference value: 4.13%); format: functional
[10] = tested on: PC-3; test: Induction of apoptosis in human PC3 cells assessed as late apoptotic cells at 75 mg/mL (reference value: 2.5%); format: functional
[11] = tested on: PC-3; test: Induction of apoptosis in human PC3 cells assessed as late apoptotic cells at […] (reference value: 2.5%); format: functional
[12] = tested on: NIH3T3; test: Antiproliferative activity against mouse NIH/3T3 cells after 72 hrs by MTT assay; format: cell-based; settings: NIH3T3, 72 h
[13] = tested on: RPMI-8226; test: Growth inhibition of human RPMI8226 cells at 1000 mg/L after 48 hrs by MTT assay relative to control; format: functional; settings: RPMI-8226, 48 h, read-out: GI
[14] = tested on: RPMI-8226; test: Induction of apoptosis in human RPMI8226 cells at 500 mg/L after 48 hrs by Annexin V/propidium iodide staining based flow cytometry (reference value: 3.02 +/- 1.19%); format: functional
[15] = tested on: RPMI-8226; test: Induction of apoptosis in human RPMI8226 cells at 1500 mg/L after 48 hrs by Annexin V/propidium iodide staining based flow cytometry (reference value: 3.02 +/- 1.19%); format: functional
[16] = Growth inhibition of human MM1R cells at […] after 24 hrs relative to control; format: functional; settings: MM.1R, read-out: GI
[17] = tested on: RPMI-8226; test: Growth inhibition of human RPMI8226 cells at […] after 24 hrs relative to control; format: functional; settings: RPMI-8226, 24 h, read-out: GI
[18] = tested on: MM1.S; test: Growth inhibition of human MM1S cells after 24 hrs; format: functional, cell-based
[19] = tested on: RPMI-8226; test: Antiproliferative activity against human RPMI8226 cells after 24 hrs by MTT assay; format: functional, cell-based; settings: RPMI-8226, 24 h
[20] = tested on: U-266; test: Antiproliferative activity against human U266 cells after 48 hrs by MTT assay; format: functional, cell-based; settings: U-266, 48 h
[21] = tested on: EJ; test: Antiproliferative activity against human EJ cells after 48 hrs by CCK8 assay; format: functional, cell-based
[22] = tested on: KYSE-150 cell line; test: Antiproliferative activity against human KYSE-150 cells assessed as cell viability at 0.5 mg/ml after 24 hrs by MTT assay relative to control; format: functional; settings: KYSE-150, 24 h, read-out: Activity
[23] = tested on: KYSE-150 cell line; test: Antiproliferative activity against human KYSE-150 cells assessed as cell viability at 1 mg/ml after 24 hrs by MTT assay relative to control; format: functional; settings: KYSE-150, 24 h, read-out: Activity
[24] = tested on: LoVo; test: Antiproliferative activity against human LoVo cells after 48 hrs by MTT assay; format: functional, cell-based
[25] = tested on: HT-29; test: Growth inhibition of human HT-29 cells at 4 ml/L after 36 hrs by MTT assay relative to control; format: functional
[26] = tested on: HT-29; test: Growth inhibition of human HT-29 cells at 8 ml/L after 36 hrs by MTT assay relative to control; format: functional
[27] = tested on: HT-29; test: Growth inhibition of human HT-29 cells at 32 ml/L after 36 hrs by MTT assay relative to control; format: functional
[28] = tested on: HT-29; test: Growth inhibition of human HT-29 cells at 2 ml/L after 48 hrs by MTT assay relative to control; format: functional
[29] = tested on: HT-29; test: Growth inhibition of human HT-29 cells at 8 ml/L after 48 hrs by MTT assay relative to control; format: functional
[30] = tested on: HT-29; test: Growth inhibition of human HT-29 cells at 1 mg/ml by MTT assay relative to control; format: functional; settings: read-out: GI
[31] = tested on: HT-29; test: Synergistic growth inhibition of human HT-29 cells at 0.5 mg/ml cotreated with 2.5 ug/ml irinotecan by MTT assay relative to control; format: functional
[32] = tested on: HT-29; test: Synergistic growth inhibition of human HT-29 cells at 1 mg/ml cotreated with 5 ug/ml irinotecan by MTT assay relative to control; format: functional
[33] = tested on: MG-63; test: Growth inhibition of human MG63 cells after 48 hrs by MTT assay; format: functional, cell-based; settings: MG-63, 48 h
[34] = tested on: UMR108; test: Growth inhibition of rat UMR108 cells assessed as cell proliferation at 1 mg/ml after 24 hrs by MTT assay (reference value: 0.405 +/- 0.007%); format: functional; settings: UMR108, 24 h, read-out: Activity
[35] = tested on: UMR108; test: Growth inhibition of rat UMR108 cells assessed as cell proliferation at 1.5 mg/ml after 24 hrs by MTT assay (reference value: 0.405 +/- 0.007%); format: functional; settings: UMR108, 24 h, read-out: Activity
[36] = tested on: UMR108; test: Growth inhibition of rat UMR108 cells assessed as cell proliferation at 1 mg/ml after 72 hrs by MTT assay (reference value: 0.403 +/- 0.009%); format: functional; settings: UMR108, 72 h, read-out: Activity
[37] = Growth inhibition of human GRC1 cells at 0.8 g/L after 24 hrs by MTT assay relative to control; format: functional; settings: read-out: GI
[38] = Growth inhibition of human GRC1 cells at 1.5 g/L after 24 hrs by MTT assay relative to control; format: functional; settings: read-out: GI
[39] = Growth inhibition of human GRC1 cells at 0.3 g/L after 72 hrs by MTT assay relative to control; format: functional; settings: read-out: GI
[40] = tested on: HT-29; test: Growth inhibition of human HT-29 cells at 16 mg/ml after 48 hrs by MTT assay relative to control; format: functional; settings: HT-29, 48 h, read-out: GI
[41] = tested on: M21; test: Induction of apoptosis in human M21 cells at 0.4 mg/ml after 48 hrs by Annexin V-FITC/propidium iodide staining based flow cytometry relative to control; format: functional
[42] = tested on: HeLa; test: Induction of apoptosis in human HeLa cells at 25 ug/ml after 48 hrs by Annexin V-FITC/propidium iodide staining based flow cytometry relative to control; format: functional
[43] = tested on: Ca-Ski; test: Antiproliferative activity against human CaSki cells after 48 hrs by CCK8 assay; format: functional, cell-based
[44] = tested on: PANC-1; test: Antiproliferative activity against human PANC1 cells by MTT assay; format: functional, cell-based

In the case of O=C1CCC[C@@H]2[C@H]3CCCN4CCC[C@@H](CN12)[C@@H]34 [MATRINE], the Activity [1] is reported as 6.28%, the Activity [2] is reported as 18.25% and the Activity [3] is reported as 34.36%. For the same compound, the Activity [4] was 3%, the Activity [5] was 77.4% and the inhibition of growth at 60000 µg/mL [6] was 40%. The Activity [7] was 12.89%, the IC50 [8] was 3.66 mM and the Activity [9] was 8.71%. The Activity [10] was 15.1%, the Activity [11] was 20.5% and the IC50 [12] was > 8.06 mM. The inhibition of growth at 1000 µg/mL [13] was 30.4%, the Activity [14] was 9.75% and the Activity [15] was 31.1%. It also gave an inhibition of growth at 2 g/mL [16] of 74%, an inhibition of growth at 2 g/mL [17] of 74% and an IC50 [18] of 4.95 mM. The IC50 [19] was 2250 µg/mL (≈ 9.06 mM), the IC50 [20] was 1580 µg/mL (≈ 6.36 mM) and the IC50 [21] was 5.09 mM. It also gave a viability at 500 µg/mL [22] of 82.2%, a viability at 1000 µg/mL [23] of 69.8% and an IC50 [24] of 2.97 mM. For the same compound, the “growth inhibition (GI)” value [25] was 42.48%, the “growth inhibition (GI)” value [26] was 58.2% and the “growth inhibition (GI)” value [27] was 77.14%. The “growth inhibition (GI)” value [28] was 29.73%, the “growth inhibition (GI)” value [29] was 68.29% and the inhibition of growth at 1000 µg/mL [30] was 35.9%. For the same compound, the “growth inhibition (GI)” value [31] was 57.25%, the “growth inhibition (GI)” value [32] was 87.61% and the IC50 [33] was 7.05 mM. For the same compound, the growth at 1000 µg/mL [34] was 0.298%, the growth at 1500 µg/mL [35] was 0.245% and the growth at 1000 µg/mL [36] was 0.195%. It also gave an inhibition of growth at 800 µg/mL [37] of 20.5%, an inhibition of growth at 1500 µg/mL [38] of 31.6% and an inhibition of growth at 300 µg/mL [39] of 14.9%. For the same compound, the inhibition of growth at 16000 µg/mL [40] was 75.8%, the Activity [41] was 34.8% and the Activity [42] was 8.91%. For the same compound, the IC50 [43] was 5.8 mM and the IC50 [44] was 0.0286 mM.

Source: ChEMBL document CHEMBL4325859, “Research advances on anticancer activities of matrine and its derivatives: An updated overview” (Eur J Med Chem, 2019)
